{"source": "paper PMC12881681", "about": "(Molecular Pharmacology, 2025)", "key": {"[1]": {"assay": "Rapid equilibrium dialysis, nonspecific binding to human liver cytosol", "procedure": "Nonspecific binding of test chemicals to human liver cytosol (100 μg) was determined using a Rapid Equilibrium Dialysis Kit (Thermo Fisher Scientific), as described in detail in our previous publication.[27]\nMOLPHA- D-25- 00208 Supplemental Materials. Kweh et al. Mol Pharmacol […]\ninhibition constants (Ki,u ) for the inhibition of human liver cytosolic carbazeran 4-oxidation A mixture containing a test chemical (10 µM; dissolved in a final concentration of 0.5% v/v DMSO) and human liver cytosol (100 µg total cytosolic protein) were dialyzed as described under Materials and Methods. Chemical concentr ation in each chamber wa s quantified by UPLC-MS/MS. Data are exp ressed as mean ± S.D. of three independent experiments. […]\na, K I,u = f u × K I, where fu was calcul ated from 10 µ M of chemicals in human liver cytosol."}, "[2]": {"target": "T1, human liver cytosolic AOX1 (Homo sapiens, UniProt Q06278)", "T1 sequence (Q06278 1-1338)": "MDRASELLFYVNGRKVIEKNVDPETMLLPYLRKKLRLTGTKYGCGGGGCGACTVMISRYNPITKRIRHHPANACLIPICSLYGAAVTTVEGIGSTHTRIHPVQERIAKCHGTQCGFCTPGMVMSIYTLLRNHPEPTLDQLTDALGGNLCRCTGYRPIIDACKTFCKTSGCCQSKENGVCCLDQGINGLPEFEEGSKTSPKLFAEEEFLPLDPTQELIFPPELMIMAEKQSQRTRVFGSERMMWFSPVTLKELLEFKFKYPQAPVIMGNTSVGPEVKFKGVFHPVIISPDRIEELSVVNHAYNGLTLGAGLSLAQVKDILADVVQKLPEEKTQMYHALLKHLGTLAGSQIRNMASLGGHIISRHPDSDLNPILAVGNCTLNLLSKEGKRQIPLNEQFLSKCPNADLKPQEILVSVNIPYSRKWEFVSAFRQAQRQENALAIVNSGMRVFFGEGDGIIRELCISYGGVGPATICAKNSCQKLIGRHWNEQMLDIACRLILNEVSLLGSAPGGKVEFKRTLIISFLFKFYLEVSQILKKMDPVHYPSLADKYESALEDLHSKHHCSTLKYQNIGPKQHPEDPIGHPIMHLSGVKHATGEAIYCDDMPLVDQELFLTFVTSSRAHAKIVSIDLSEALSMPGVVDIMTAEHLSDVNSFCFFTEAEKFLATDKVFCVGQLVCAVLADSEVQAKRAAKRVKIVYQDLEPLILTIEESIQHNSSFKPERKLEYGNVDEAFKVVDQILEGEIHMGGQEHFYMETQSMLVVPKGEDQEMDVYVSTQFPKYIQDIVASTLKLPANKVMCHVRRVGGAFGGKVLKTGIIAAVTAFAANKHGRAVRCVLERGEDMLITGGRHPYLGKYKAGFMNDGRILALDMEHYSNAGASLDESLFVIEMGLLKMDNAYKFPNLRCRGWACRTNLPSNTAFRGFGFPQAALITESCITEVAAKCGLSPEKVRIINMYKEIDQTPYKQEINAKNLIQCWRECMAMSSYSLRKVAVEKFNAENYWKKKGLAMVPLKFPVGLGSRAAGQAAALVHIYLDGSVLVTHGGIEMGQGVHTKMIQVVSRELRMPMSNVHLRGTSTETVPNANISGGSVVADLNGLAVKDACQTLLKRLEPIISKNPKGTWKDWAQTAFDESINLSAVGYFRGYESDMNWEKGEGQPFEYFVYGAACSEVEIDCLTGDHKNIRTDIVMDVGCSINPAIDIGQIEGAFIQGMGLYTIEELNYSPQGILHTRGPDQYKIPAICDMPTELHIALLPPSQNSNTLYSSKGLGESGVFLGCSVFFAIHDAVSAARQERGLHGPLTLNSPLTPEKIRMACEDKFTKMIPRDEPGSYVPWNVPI", "type": "biochemical", "parameters": "Enzymatic reaction was initiated by adding human liver cytosol (100 μg); tissue Corning, Inc. (Gentest brand) 452115; host or cells: human liver cytosol, pool of 150 donors", "conditions": "potassium ferricyanide 2 mM, 0 or 6 min preincubation", "procedure": "The residual AOX1 enzyme activity was determined by the carbazeran 4-oxidation assay.\nA test chemical at a concentration described above was incubated with human liver cytosol (100 μg protein) at 37 °C for 0 or 6 minutes. […] After 10-minute incubation, an aliquot (50 μL) of the […] (total volume of 200 μL) containing potassium phosphate buffer and carbazeran (15 μM), which yielded a 4-fold dilution of the secondary incubation mixture. The residual AOX1 enzyme activity was determined as described above."}, "[3]": {"conditions": "10 μM, human liver cytosol 100 μg protein, 4-hour dialysis"}}, "data": [{"smiles": "C#Cc1cccc(Nc2nc(C)nc3cc(OCCOC)c(OCCOC)cc23)c1", "note": "[2-Methylerlotinib, 2-methylerlotinib]", "values": [{"measurement": "Fraction Unbound (fu)", "setting": "[1]; human, cytosol", "value": "0.51 ± 0.07"}, {"measurement": "effect of coincubation or postincubation with potassium ferricyanide on AOX1 inactivation", "setting": "[2]", "value": "not increased or decreased"}]}, {"smiles": "C=Cc1cccc(Nc2ncnc3cc(OCCOC)c(OCCOC)cc23)c1", "note": "[3-Vinylerlotinib, 3-vinylerlotinib]", "values": [{"measurement": "Fraction Unbound (fu)", "setting": "[1]; human, cytosol", "value": "0.78 ± 0.04"}, {"measurement": "effect of coincubation or postincubation with potassium ferricyanide on AOX1 inactivation", "setting": "[2]", "value": "not increased or decreased"}]}, {"smiles": "C#Cc1cc(Nc2ncnc3cc(OCCOC)c(OCCOC)cc23)ccc1C", "note": "[4′-Methylerlotinib, 4′-methylerlotinib]", "values": [{"measurement": "Fraction Unbound (fu)", "setting": "[1]; human, cytosol", "value": "0.73 ± 0.05"}, {"measurement": "effect of coincubation or postincubation with potassium ferricyanide on AOX1 inactivation", "setting": "[2]", "value": "not increased or decreased"}]}, {"smiles": "C#Cc1cccc(Nc2ncnc3cc(OCCOC)c(OCCOC)cc23)c1", "note": "[Erlotinib]", "values": [{"measurement": "fraction unbound at 4 h, 10 μM", "setting": "[1]; human, human liver cytosol", "value": 0.56}, {"measurement": "effect of coincubation or postincubation with potassium ferricyanide on AOX1 inactivation", "setting": "[2]", "value": "not increased or decreased"}]}, {"smiles": "C#Cc1cccc(Nc2ncnc3cc(OCCOC)c(OCCO)cc23)c1", "note": "[O-Desmethylerlotinib, O-desmethylerlotinib]", "values": [{"measurement": "Fraction Unbound (fu)", "setting": "[1]; [3]", "value": 0.84}, {"measurement": "effect of coincubation or postincubation with potassium ferricyanide on AOX1 inactivation", "setting": "[2]", "value": "not increased or decreased"}]}, {"smiles": "C#Cc1cccc(Nc2ncnc3cc(OCCO)c(OCCO)cc23)c1", "note": "[O-Didesmethylerlotinib, O-didesmethylerlotinib]", "values": [{"measurement": "Fraction Unbound (fu)", "setting": "[1]; [3]", "value": 0.84}, {"measurement": "effect of coincubation or postincubation with potassium ferricyanide on AOX1 inactivation", "setting": "[2]", "value": "not increased or decreased"}]}]}
